{"source": "paper PMC2794939", "about": "(Biochemistry, 2009)", "data": [{"test_system": "influenza virus A/M2-V27A/L38F", "type": "cell-based, Influenza A/Udorn/72 virus (recombinant mutant)", "units": {"Plaque count": "plaques/well"}, "values": [{"molecule": "NC1CCC2(CCCCC2)CC1", "note": "[Compound 8, spiro[5.5]undecan-3-amine]", "Plaque count": 37, "effect on plaque formation (count and size)": "reduced"}, {"molecule": "C1CCC2(CC1)CCN(C1=NCCN1)CC2", "note": "[BL-1743, 2-[3-azaspiro([5],[5])undecanol]-2-imidazoline]", "Plaque count": 86, "effect on plaque formation (count and size)": "failed to inhibit plaque formation"}, {"molecule": "NC12CC3CC(CC(C3)C1)C2", "note": "[Amantadine, amantadine]", "Plaque count": 82, "effect on plaque formation (count and size)": "failed to inhibit plaque formation"}]}]}
